The values below are quoted from earlier work in patent US8883786B2, “Glucocorticoid receptor antagonists” (Hoffmann-La Roche Inc., priority 2007, dated 2014).

For data set [1] the following is noted: clinical administration, chronic, Cushing's patients.
For data set [2] the following is noted: clinical administration, acute, normal volunteers.
For data set [3] the following is noted: long term treatment (up to 1 year).
Data set [4] has as its system ob/ob mice. The settings on record: leptin deficient ob/ob mice.
Data set [5] deals with Hypothalamus-Pituitary gland-Adrenal gland (HPA) axis. The settings on record: HPA axis stimulation via feed-back mechanism.
The subject of data set [6] is gluconeogenic enzymes. As to conditions: db/db mice.

As to `CC#C[C@]1(O)CC[C@H]2[C@@H]3CCC4=CC(=O)CCC4=C3[C@@H](c3ccc(N(C)C)cc3)C[C@@]21C` [RU486/mifepristone, mifepristone], the “plasmatic HbA1c” value in data set [1] is “decrease of plasmatic HbA1c”. For the same compound, the values for the fasting plasma glucose result in data set [2] and in data set [4] were “decrease of fasting plasma glucose” and “normalizes fasting plasma glucose”, respectively. In data set [3], the adrenal insufficiency symptoms result is on record as “induces some adrenal insufficiency symptoms”. Besides, the “endogenous corticosteroids circulating in the blood” value in data set [5] is reported as “increase of endogenous corticosteroids circulating in the blood”. Further, the “activity of gluconeogenic enzymes” value in data set [6] is “normalizes”.
